The source of these data is PMC7076875 (2020).

This experiment has as its system apt 32 (DNA, aptamer) AAAAAAAAAAAAGGGCACGTGTTGTCTCTCTGTGTCTCGTGCCC
Description: lateral flow strip, competition with complementary strand. The following applies: 120 mM NaCl, 5 mM KCl, 200 mM MgCl2; 10 mM Tris pH 7.4, 5% methanol, room temperature; immobilised probe 2 competes; tested at 100 ng/mL.
Regarding `CCCC[C@@H](C)[C@@H](OC(=O)C[C@@H](CC(=O)O)C(=O)O)[C@H](C[C@@H](C)C[C@H](O)CCCC[C@@H](O)C[C@H](O)[C@H](C)N)OC(=O)C[C@@H](CC(=O)O)C(=O)O`, the binding entry is reported as “no”. For the molecule `C[C@@H]1Cc2c(Cl)cc(C(=O)N[C@@H](Cc3ccccc3)C(=O)O)c(O)c2C(=O)O1`, the binding entry is reported as “no”. With `C[C@H]1CCCC(=O)CCC/C=C/c2cc(O)cc(O)c2C(=O)O1` the entry was “no”.
